pIC50: −log10 of the molar value. Activity calls are given as the source filed them.
Key:
[1] = Luminescence Cell-Based Dose Response to Identify Activators of 5'UTR Stem-Loop Driven Prion Protein mRNA Translation in H4-C Neuroglioblastoma Cells. [Related pubchem assays: 1829 (Project Summary), 1814 (Primary HTS)]; type: functional
[2] = Luminescence Cell-Based Dose Response HTS to Identify Activators of Luciferase Translation or Activity in H4 […] Cells. [Related pubchem assays: 1829 (Project Summary), 1814 (Primary HTS)]; type: functional
H4 = assay: Luminescence Cell-Based Dose Response HTS to Identify Activators of 5'UTR Stem-Loop Driven Prion Protein mRNA Translation in H4 Neuroglioblastoma Cells. [Related pubchem assays: 1829 (Project Summary), 1814 (Primary HTS)]; type: functional; conditions: Homo sapiens
[3] = Luminescence Cell-Based Dose Response to Identify Activators of Luciferase Translation or Activity in H4-C Neuroglioblastoma Cells. [Related pubchem assays: 1829 (Project Summary), 1814 (Primary HTS)]; type: functional
[4] = Luminescence Cell-Based Dose Confirmation to Identify Activators of 5'UTR Stem-Loop Driven Alpha-Synuclein mRNA Translation in H4 Neuroglioblastoma Cells. [Related pubchem assays: 1829 (Project Summary), 1814 (Primary HTS)]; type: functional
[5] = Counterscreen for […] of the human trace amine associated receptor 1 (TAAR1): Fluorescence-based cell-based high throughput dose response assay to identify nonselective Ga16 agonists.; type: functional
[6] = target: T1, Trace amine-associated receptor 1 (Homo sapiens, UniProt Q96RJ0); assay: Fluorescence-based cell-based high throughput dose response assay to identify antagonists of the human trace amine associated receptor 1 (TAAR1).; type: functional
T1 sequence (Q96RJ0 whole entry): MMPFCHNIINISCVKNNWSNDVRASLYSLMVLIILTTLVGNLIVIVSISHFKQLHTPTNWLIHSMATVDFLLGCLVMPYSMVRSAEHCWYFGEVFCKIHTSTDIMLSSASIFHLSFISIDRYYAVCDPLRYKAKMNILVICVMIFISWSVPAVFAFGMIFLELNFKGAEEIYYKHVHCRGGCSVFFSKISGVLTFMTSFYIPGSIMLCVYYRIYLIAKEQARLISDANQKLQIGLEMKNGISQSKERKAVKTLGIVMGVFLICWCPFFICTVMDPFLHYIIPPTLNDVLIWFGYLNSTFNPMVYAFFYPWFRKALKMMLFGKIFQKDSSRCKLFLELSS

[7] = Counterscreen for antagonists of the human trace amine associated receptor 1 (hTAAR1): Fluorescence-based cell-based high throughput dose response assay to identify nonselective Ga16 antagonists.; type: functional
[8] = target: T1, Trace amine-associated receptor 1; assay: Counterscreen for antagonists of the human trace amine associated receptor 1 (hTAAR1): Fluorescence-based cell-based high throughput dose response assay to identify TAAR1 Agonists.; type: functional
Paired box protein Pax-8 = Paired box protein Pax-8 (Homo sapiens, UniProt Q06710); assay: inhibitors of PAX8-driven TPO luciferase reporter, dose response, RMG-I cells, cherry-pick (AID 687027); type: functional, cell-based;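 further: luciferase reporter driven by Pax8 target thyroperoxidase promoter measured by SteadyGlo luminescence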
[9] = IOSE-T80 ovarian epithelial cell cytotoxicity, dose response, cytotoxicity control for PAX8 inhibitor project, plate reader, dry powder samples (AID 743045); type: functional, cell-based
[10] = NIH:OVCAR-3 ovarian cancer cell cytotoxicity, dose response, PAX8 inhibitor project, plate reader, dry powder samples (AID 743044); type: functional, cell-based
[11] = IGROV1 ovarian cancer cell cytotoxicity, dose response, PAX8 inhibitor project, plate reader, dry powder samples (AID 743043); type: functional, cell-based; conditions: IGROV-1
[12] = target: Metabotropic glutamate receptor 3 (Rattus norvegicus, UniProt P31422); assay: mGlu3 NAM potency via calcium readout, dose response, mGlu3 NAM project, TREx293 cells, Galpha15, calcium flux (AID 651840); type: functional
[13] = target: Glucose-6-phosphate 1-dehydrogenase (Homo sapiens, UniProt P11413); assay: human G6PD enzyme inhibitors, dose response, selectivity assay for P. falciparum G6PD inhibitor project, biochemical, fluorescence (AID 504792); type: functional
[14] = target: 1-phosphatidylinositol 4,5-bisphosphate phosphodiesterase gamma-1 (Homo sapiens, UniProt P19174); assay: Counterscreen for inhibitors of phospholipase C isozymes (PLC-B3): Fluorescence-based biochemical high throughput dose response assay to identify inhibitors of phospholipase C isozymes (PLC-gamma1).
[15] = target: 1-phosphatidylinositol 4,5-bisphosphate phosphodiesterase beta-3 (Homo sapiens, UniProt Q01970); assay: Fluorescence-based biochemical high throughput dose response assay to identify inhibitors of phospholipase C isozymes (PLC-B3).
[16] = human group III sPLA2 inhibitors, dose response, biochemical, QFRET, IC50 (AID 743457);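 further: green fluorescence rise as the enzyme cleaves BODIPY PC-A2 in liposomes; potency for inhibition of the enzyme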
[17] = target: T2, RNA-binding protein pos-1 (Caenorhabditis elegans, UniProt G5EF15); assay: inhibitors of POS-1/mex-3 RNA binding, dose response, biochemical, fluorescence polarization (AID 1964);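 further: purified POS-1 fused to maltose binding protein made in E. coli; potency of compounds blocking POS-1 binding to fluorescent RNA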
T2 sequence (G5EF15 whole entry): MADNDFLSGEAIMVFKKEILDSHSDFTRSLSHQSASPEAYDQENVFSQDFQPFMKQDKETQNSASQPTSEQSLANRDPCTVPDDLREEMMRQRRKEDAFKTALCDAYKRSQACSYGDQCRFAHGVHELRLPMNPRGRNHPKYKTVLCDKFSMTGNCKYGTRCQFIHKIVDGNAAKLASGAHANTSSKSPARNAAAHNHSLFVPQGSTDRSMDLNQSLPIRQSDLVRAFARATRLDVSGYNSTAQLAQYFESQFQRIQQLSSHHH

[18] = target: T3, Zinc finger protein mex-5 (Caenorhabditis elegans, UniProt Q9XUB2); assay: MEX-5/TCR-2 RNA interaction inhibitors, dose response, biochemical, C. elegans, fluorescence polarization (AID 1960)
T3 sequence (Q9XUB2 whole entry): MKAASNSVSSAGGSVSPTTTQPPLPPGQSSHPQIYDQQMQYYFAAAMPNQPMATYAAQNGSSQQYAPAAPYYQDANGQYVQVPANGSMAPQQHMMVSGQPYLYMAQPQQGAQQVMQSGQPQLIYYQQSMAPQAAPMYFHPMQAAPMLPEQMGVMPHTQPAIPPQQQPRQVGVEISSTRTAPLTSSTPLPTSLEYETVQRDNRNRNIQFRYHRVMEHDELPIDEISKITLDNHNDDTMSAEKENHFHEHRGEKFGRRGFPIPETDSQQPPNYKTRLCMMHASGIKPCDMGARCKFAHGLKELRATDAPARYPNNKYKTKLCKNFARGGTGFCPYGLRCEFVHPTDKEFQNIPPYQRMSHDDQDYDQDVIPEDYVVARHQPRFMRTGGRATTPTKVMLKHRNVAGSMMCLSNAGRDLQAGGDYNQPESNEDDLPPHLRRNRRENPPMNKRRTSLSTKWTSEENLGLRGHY

cells [19] = assay: cells
[20] = A Cell-Based Confirmatory Screen for Compounds that Inhibit VEEV, TC-83 (8).; type: functional
[21] = A Cell-Based Confirmatory Screen for Compounds that Inhibit VEEV, TC-83 (6).; type: functional
[22] = non-specific cell cytotoxicity, dose response, cytotoxicity control for PAX8 inhibitor project, plate reader, dry powder samples (AID 743021); type: functional, cell-based
[23] = cytotoxicity in OVCAR8 ovarian cancer cells, dose response, PAX8 project, cell-based, plate reader, dry powder samples (AID 743197); type: functional; conditions: OVCAR-8
[24] = target: Disintegrin and metalloproteinase domain-containing protein 17 (Homo sapiens, UniProt P78536); assay: exosite inhibitors of ADAM17, dose response, biochemical (AID 743260)
[25] = ADAM10 protease inhibitors, dose response, selectivity assay for ADAM17 exosite inhibitor project, biochemical, FRET peptide substrate, recombinant human ADAM10 (AID 743259);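 further: ADAM10 enzyme cleaving a FRET peptide substrate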
[26] = Late stage assay provider results from the probe development effort to identify inhibitors of the Plasmodium falciparum M18 Aspartyl Aminopeptidase (M18AAP): radiolabel-based cell-based dose response assay to identify compounds that inhibit P. falciparum growth in RBCs, Set 2..; type: functional
[27] = cytotoxicity in HepG2 cells, dose response, cytotoxicity control, cell-based, cherry-picked samples (AID 1053183); type: functional
[28] = P. falciparum Dd2 growth inhibitors, dose response, SYBR Green, cherry-picked samples (AID 1159567); type: functional, cell-based
[29] = HepG2 cell cytotoxicity, dose response, cytotoxicity control, cherry-picked samples (AID 1159577); type: functional, cell-based
[30] = target: Potassium channel subfamily K member 9 (Homo sapiens, UniProt Q9NPC2); assay: TASK3 (KCNK9) channel inhibitors, thallium flux, SAR follow-up, selectivity assay for TASK1 inhibitor project, cell-based, FluxOR thallium flux, concentration-response (AID 652211); type: functional;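 further: potency is for inhibitors of the channel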
[31] = target: Potassium channel subfamily K member 3 (Homo sapiens, UniProt O14649); assay: TASK1 (KCNK3) potassium channel inhibitors, SAR follow-up, CHO cells, FluxOR thallium flux (AID 652212); type: functional
[32] = A549 cell cytotoxicity, dose response, cytotoxicity control, cherry-picks, 26 µM top dose (AID 1053119); type: functional, cell-based
[33] = inhibitors of fibronectin matrix deposition, dose response, AH1F cells, Alexa488-FN fluorescence, cherry-picks (AID 1035475); type: functional, cell-based
[34] = target: T4, DNA repair and recombination protein RAD54-like (Homo sapiens, UniProt Q92698); assay: inhibitors of human RAD54 branch migration, confirmation, biochemical, fluorescence, cherry-picked samples, dose series (AID 651657); type: functional
T4 sequence (Q92698 whole entry): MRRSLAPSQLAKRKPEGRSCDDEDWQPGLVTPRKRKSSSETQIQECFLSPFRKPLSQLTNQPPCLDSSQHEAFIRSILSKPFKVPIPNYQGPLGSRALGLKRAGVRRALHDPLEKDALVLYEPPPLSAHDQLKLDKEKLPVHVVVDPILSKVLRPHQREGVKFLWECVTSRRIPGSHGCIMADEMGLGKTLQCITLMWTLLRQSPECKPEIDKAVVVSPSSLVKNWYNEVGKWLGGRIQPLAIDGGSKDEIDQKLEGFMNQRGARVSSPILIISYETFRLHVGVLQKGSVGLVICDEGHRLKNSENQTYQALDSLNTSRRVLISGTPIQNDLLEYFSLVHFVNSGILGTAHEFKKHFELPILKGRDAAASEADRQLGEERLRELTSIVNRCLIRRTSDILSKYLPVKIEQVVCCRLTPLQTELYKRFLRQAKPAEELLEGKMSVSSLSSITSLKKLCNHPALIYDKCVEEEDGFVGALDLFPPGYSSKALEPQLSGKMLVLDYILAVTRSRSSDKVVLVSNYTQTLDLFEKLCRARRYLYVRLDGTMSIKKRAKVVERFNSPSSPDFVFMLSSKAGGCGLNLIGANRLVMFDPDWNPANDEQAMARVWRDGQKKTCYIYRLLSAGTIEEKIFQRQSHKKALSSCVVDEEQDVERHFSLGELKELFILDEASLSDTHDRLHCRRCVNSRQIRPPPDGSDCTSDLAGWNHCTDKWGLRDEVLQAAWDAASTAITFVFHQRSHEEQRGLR

cells [35] = conditions: A549
[36] = HEK293T cell cytotoxicity, dose response, cytotoxicity control, CellTiter-Glo luminescence, dry powder, set 6 (AID 651949); type: functional, cell-based; conditions: HEK293

Paired box protein Pax-8, sequence (Q06710 whole entry): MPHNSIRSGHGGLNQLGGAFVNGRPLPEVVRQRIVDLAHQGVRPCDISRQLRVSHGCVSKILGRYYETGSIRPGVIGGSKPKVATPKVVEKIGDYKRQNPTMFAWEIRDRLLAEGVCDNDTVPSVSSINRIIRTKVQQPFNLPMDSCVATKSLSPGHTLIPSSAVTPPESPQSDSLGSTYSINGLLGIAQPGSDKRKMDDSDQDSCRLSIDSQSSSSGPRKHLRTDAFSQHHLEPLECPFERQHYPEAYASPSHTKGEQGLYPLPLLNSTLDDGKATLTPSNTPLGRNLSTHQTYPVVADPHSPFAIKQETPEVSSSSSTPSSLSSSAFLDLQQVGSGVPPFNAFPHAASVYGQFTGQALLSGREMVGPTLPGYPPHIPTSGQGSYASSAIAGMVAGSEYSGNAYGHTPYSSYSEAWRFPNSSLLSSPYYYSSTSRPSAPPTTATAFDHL
1-phosphatidylinositol 4,5-bisphosphate phosphodiesterase beta-3, sequence (Q01970 whole entry): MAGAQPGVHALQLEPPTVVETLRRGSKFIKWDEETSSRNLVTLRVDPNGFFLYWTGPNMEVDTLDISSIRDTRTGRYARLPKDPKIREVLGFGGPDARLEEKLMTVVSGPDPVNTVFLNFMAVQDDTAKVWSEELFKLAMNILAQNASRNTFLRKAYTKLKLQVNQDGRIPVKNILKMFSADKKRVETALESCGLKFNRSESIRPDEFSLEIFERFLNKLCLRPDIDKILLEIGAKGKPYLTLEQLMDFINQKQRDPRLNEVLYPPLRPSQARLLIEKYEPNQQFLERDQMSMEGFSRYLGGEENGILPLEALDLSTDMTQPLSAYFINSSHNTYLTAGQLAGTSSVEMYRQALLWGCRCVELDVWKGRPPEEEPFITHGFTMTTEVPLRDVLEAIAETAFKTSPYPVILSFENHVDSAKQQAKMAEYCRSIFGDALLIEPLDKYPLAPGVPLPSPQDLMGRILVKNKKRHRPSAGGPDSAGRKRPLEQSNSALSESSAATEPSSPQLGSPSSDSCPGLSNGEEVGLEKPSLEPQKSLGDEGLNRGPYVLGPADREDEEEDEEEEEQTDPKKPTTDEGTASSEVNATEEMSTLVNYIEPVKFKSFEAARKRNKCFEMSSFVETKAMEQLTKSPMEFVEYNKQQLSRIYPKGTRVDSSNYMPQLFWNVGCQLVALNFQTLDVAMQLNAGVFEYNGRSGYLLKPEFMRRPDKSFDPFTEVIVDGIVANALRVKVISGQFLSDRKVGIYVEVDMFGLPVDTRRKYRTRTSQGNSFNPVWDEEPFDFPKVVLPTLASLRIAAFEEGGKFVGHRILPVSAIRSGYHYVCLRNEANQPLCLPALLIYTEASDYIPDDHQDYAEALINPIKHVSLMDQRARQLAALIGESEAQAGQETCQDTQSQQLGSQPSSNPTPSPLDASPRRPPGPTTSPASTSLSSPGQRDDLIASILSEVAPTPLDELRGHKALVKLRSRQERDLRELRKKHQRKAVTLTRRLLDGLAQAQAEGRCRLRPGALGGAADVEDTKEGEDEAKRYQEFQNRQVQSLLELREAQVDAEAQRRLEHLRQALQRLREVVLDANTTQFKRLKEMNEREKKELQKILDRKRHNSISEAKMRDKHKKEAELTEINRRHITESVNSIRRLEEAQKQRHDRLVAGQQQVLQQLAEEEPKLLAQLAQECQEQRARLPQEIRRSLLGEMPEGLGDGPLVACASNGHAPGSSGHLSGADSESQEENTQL
Glucose-6-phosphate 1-dehydrogenase, sequence (P11413 whole entry): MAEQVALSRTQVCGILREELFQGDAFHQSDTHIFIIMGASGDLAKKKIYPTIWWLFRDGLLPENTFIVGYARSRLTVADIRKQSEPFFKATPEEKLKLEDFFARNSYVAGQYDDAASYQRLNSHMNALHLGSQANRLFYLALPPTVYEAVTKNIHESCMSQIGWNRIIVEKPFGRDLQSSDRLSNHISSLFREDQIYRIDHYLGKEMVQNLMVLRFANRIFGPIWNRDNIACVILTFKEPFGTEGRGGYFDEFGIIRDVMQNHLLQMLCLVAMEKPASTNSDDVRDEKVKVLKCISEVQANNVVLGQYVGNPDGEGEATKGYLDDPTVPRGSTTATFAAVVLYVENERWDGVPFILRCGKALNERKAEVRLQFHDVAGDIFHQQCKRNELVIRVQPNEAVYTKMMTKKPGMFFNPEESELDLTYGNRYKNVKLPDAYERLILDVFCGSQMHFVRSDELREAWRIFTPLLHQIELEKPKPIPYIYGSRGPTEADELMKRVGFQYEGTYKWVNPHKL
1-phosphatidylinositol 4,5-bisphosphate phosphodiesterase gamma-1, sequence (P19174 whole entry): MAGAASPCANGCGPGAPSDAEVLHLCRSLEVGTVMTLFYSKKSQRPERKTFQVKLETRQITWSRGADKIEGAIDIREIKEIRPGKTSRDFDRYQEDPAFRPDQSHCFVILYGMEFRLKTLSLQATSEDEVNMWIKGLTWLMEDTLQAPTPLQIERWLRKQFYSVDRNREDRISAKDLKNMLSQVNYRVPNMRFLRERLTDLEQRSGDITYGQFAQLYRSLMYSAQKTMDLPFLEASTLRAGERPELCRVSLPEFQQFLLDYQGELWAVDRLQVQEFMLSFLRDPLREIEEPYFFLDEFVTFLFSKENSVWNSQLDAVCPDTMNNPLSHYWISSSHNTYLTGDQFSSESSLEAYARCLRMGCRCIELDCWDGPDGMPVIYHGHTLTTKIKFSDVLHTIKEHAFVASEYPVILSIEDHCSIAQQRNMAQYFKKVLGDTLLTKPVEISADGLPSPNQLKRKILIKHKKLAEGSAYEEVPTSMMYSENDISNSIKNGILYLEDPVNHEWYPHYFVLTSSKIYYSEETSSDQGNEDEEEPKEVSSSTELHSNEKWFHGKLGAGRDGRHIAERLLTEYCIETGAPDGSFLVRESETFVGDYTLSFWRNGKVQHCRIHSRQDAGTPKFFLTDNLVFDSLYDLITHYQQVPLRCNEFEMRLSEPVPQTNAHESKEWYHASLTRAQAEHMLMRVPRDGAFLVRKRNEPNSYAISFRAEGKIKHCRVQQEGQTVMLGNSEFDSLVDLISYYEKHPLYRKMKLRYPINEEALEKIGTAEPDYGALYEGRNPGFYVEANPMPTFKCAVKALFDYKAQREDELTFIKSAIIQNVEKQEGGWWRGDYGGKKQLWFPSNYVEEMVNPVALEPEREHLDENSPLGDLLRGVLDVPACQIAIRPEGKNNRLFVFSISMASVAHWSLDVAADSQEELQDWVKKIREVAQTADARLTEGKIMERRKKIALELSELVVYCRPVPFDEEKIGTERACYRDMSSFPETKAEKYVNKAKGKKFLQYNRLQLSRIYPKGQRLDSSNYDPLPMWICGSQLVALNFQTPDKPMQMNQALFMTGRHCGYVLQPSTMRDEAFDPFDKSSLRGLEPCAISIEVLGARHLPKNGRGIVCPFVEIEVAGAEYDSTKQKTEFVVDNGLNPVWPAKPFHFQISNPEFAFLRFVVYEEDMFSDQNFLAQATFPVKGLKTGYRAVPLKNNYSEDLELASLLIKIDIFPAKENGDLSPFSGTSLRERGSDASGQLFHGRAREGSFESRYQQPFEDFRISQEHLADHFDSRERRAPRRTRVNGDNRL
Potassium channel subfamily K member 9, sequence (Q9NPC2 whole entry): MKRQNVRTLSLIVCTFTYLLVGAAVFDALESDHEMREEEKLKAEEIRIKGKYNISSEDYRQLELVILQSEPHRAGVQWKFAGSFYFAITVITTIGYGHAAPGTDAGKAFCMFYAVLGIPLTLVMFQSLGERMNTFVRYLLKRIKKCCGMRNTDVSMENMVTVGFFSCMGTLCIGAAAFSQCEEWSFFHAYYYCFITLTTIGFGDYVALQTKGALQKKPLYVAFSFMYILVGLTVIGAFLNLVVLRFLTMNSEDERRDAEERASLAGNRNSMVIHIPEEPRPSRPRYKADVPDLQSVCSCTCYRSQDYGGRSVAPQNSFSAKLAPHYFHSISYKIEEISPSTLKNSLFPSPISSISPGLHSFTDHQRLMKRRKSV
Metabotropic glutamate receptor 3, sequence (P31422 whole entry): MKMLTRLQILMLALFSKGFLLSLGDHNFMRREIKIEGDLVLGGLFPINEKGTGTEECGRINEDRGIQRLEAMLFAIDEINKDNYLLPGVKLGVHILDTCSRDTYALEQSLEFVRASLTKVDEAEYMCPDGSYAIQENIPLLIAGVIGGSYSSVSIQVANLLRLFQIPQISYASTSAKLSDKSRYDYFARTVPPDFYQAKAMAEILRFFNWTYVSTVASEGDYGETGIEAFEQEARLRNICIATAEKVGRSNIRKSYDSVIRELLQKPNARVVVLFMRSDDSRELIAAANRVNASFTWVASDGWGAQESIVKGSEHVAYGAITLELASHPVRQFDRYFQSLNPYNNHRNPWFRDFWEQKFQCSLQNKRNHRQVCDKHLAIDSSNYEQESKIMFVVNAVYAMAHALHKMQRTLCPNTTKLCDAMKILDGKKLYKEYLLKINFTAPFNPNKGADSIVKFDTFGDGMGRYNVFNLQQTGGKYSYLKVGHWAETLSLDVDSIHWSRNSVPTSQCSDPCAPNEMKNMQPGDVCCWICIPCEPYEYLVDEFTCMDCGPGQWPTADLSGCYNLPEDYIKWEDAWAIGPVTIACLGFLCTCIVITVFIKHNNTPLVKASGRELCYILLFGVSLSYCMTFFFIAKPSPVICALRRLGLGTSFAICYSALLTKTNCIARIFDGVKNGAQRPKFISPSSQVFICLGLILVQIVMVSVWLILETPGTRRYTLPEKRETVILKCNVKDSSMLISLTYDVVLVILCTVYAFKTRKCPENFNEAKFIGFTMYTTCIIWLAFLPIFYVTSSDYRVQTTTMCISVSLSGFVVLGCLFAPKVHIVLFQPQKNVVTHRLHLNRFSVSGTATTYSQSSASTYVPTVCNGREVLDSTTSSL

Compound: Cc1cc(/C=C(\C#N)C(=O)NCc2cccs2)c(C)n1-c1ccccc1F
- EC50 [1]: 0.952 µM (active)
- EC50 [2]: < 0.1 µM (active)
- EC50 (H4): 61 µM (active)
- EC50 [3]: 0.225 µM (active)
- EC50 [4]: 0.472 µM (active)
- EC50 [5]: > 29.9 µM (inactive)
- IC50 [6]: 3.75 µM (active)
- IC50 [7]: > 29.9 µM (inactive)
- EC50 [8]: > 29.9 µM (inactive)

Compound: C[C@@H]1CN([C@H](C)CO)C(=O)c2cc(NC(=O)Nc3ccccc3)ccc2O[C@@H](C)CCCCO[C@H]1CN(C)Cc1ccc(C(F)(F)F)cc1
- AC50 (Paired box protein Pax-8): 10.9 µM (active)
- AC50 [9]: 31.7 µM (active)
- AC50 [10]: 24.2 µM (active)
- AC50 [11]: 36.2 µM (active)

Compound: COc1ccc(C#Cc2ccc(C(=O)N3CCC[C@@H](O)C3)cc2F)cc1
- pIC50 [12]: 6.40

Compound: Cn1cc(S(=O)(=O)CC(=O)N2CCc3ccccc32)c2ccccc21
- IC50 [13]: > 80 µM (inactive)
- IC50 [14]: > 122 µM (inactive)
- IC50 [15]: > 122 µM (inactive)

Compound: CCCCCC(=O)NNC(=S)NC(=O)c1ccccc1[N+](=O)[O-]
- IC50 [16]: > 122 µM (inactive)

Compound: CCn1c(=N)c(S(=O)(=O)c2ccccc2)cc2c(=O)n3ccccc3nc21
- EC50 [17]: > 300 µM (not active)
- EC50 [18]: > 300 µM (not active)
- AC50 (cells [19]): 1.01 µM (active)

Compound: O=c1c2cc([N+](=O)[O-])ccc2nc(CN2CCNCC2)n1-c1ccsc1
- IC50 [20]: 1.74 µM (active)
- IC50 [21]: 1.74 µM (active)

Compound: C[C@@H]1CN([C@H](C)CO)C(=O)c2cc(NS(=O)(=O)c3ccc(F)cc3)ccc2O[C@@H](C)CCCCO[C@@H]1CN(C)Cc1ccccc1
- AC50 (Paired box protein Pax-8): 7.31 µM (active)
- AC50 [10]: 21.1 µM (active)
- AC50 [22]: 2.88 µM (active)
- AC50 [23]: 39.4 µM (active)

Compound: COC(=O)c1c(C)n(-c2ccc(OC)cc2)c2ccc(O)cc12
- IC50 [24]: > 69.5 µM (inactive)
- IC50 [25]: > 69.5 µM (inactive)

Compound: Oc1ccc(C2CCCN(c3ccnc4ccccc34)C2)cc1O (stereo not given)
- IC50 [26]: 4.2 µM (active)

Compound: COc1cc(CN2C[C@@H]3N[C@H](C2)[C@H]3c2ccc(-c3ccc(C#N)cc3)cc2)cc(OC)c1
- AC50 [27]: 24.3 µM (active)
- AC50 [28]: 1.33 µM (active)
- AC50 [29]: 8.15 µM (active)

Compound: COc1ccccc1NC(=O)c1cccc(NC(=O)C2CCCCC2)c1
- IC50 [30]: 2.16 µM (active)
- IC50 [31]: 0.086 µM (active)

Compound: CC(C)(C)[S@+]([O-])N1Cc2cc(C(=O)NCc3ccccc3F)nc(-c3cccc(-c4cncnc4)c3)c2[C@@H]1CCO
- AC50 [32]: > 52 µM (inactive)
- AC50 [33]: 50.8 µM (active)

Compound: Cc1nc2ccccc2c2oc(C(=O)NCCCN3CCC(C)CC3)cc12
- AC50 [34]: 36.5 µM (active)
- AC50 (cells [35]): > 52 µM (inactive)

Compound: COc1ccc(-c2nnc(SCc3ccc(Cl)cc3)o2)cc1
- AC50 [36]: > 52 µM (inactive)

— ChEMBL document CHEMBL1201862, “PubChem BioAssay data set” (2004)
